In data set [1] the test system is P. falciparum D10 (CQ-sensitive) strain. Put plainly: P. falciparum drug susceptibility assay. As to conditions: for IC50: Plasmodium falciparum, D10, 72 h, read-out: P. falciparum IC50 D10; for SID10: IC50(NHDF)/IC50(D10). The data set is classed as cell-based.
The subject of data set [2] is P. falciparum W2 (CQ-resistant) strain. The data set is described as follows: P. falciparum drug susceptibility assay. The data set is classed as cell-based. As to conditions: for IC50: Plasmodium falciparum, W2, 72 h, read-out: P. falciparum IC50 W2; for SIW2: IC50(NHDF)/IC50(W2); for RI (resistance index): ratio of IC50 against W2 and D10 strains.
The subject of data set [3] is human erythrocytes. The data set is described as follows: Hemolytic activity in the presence of 10 μM FP. The data set is classed as cell-based. The settings on record: for Hemolysis of human erythrocytes in the presence of FP: 50 and 100 μM, 2 h, 37 °C.
A further data set is described as follows: Cytotoxic activity test. The settings on record: human, NHDF cells. The data set is classed as cell-based, human.
The test system of data set [4] is human erythrocytes. The data set is described as follows: Hemolytic activity without FP. It is filed as cell-based. As to conditions: 50 and 100 μM, 2 h, 37 °C.
Data set [5] can be described thus: In vivo pharmacokinetic evaluation in mice.
A further data set concerns NHDF cells. Put plainly: Cytotoxic activity test. The data set is classed as cell-based, human. The settings on record: 24 and 48 h, MTT, up to twice the IC50 for P. falciparum.
The mark [6] stands for this setting: male, CD-1, mouse, plasma, po, 0.02 mg/kg.

Molecules are shown by their SMILES. ≈ marks a conversion by molar mass, not a printed value.

Turning to `c1cnc2[nH]c3ncccc3c2c1` [Compound 7, 9H-1,8-diazacarbazole], the IC50 in data set [1] and in data set [2] was more than 5 µg/mL throughout.

Consider `c1cnc2c(c1)[nH]c1cccnc12` [Compound 10, 9H-4,5-diazacarbazole], for which the IC50 in data set [1] and in data set [2] was more than 5 µg/mL each time.

On to `Cn1cccc2c3cccnc3nc1-2` [Compound 11, 1-methyl-1H-1,8-diazacarbazole], for which the IC50 in data set [1] and in data set [2] was more than 5 µg/mL each time.

Regarding `c1cnc2c(c1)[nH]c1ncccc12` [Compound 9, 9H-1,5-diazacarbazole], the IC50 in data set [1] and in data set [2] was more than 5 µg/mL in each case.

With `CCN(CC)CCCC(C)Nc1ccnc2cc(Cl)ccc12` (stereo not shown) [CQ, chloroquine diphosphate, reference compound], in data set [1], the IC50 came to 0.0184 ± 0.008 µg/mL. Besides, in the data set on human erythrocytes [3], the “Hemolysis of human erythrocytes in the presence of FP” value (from here on “Hemolysis … of FP”) is listed as “drastically increased the percentage of hemolysis”. Also, in data set [2], the SIW2 was 80.5 and the IC50 came to 0.262 ± 0.102 µg/mL.

As for `c1ccc2c(c1)[nH]c1ncccc12` [Compound 1, 9H-1-azacarbazole], the IC50 in data set [1] and in data set [2] was more than 5 µg/mL each time.

Turning to `Cn1cccc2nc3cccnc3c1-2` [Compound 12, 4-methyl-4H-4,5-diazacarbazole], in data set [1], the SID10 was 13.5 and the IC50 came to 3.16 ± 0.621 µg/mL (≈ 17.3 µM). In “Cytotoxic activity test”, this compound had an IC50 of 42.8 ± 3.31 µg/mL (≈ 234 µM). Further, the “Hemolysis with FP compared with CQ-FP, 50 μM” value in the data set with human erythrocytes [3] is given as “less hemolytic than CQ-FP complexes”. The “Hemolysis with FP compared with CQ-FP, 100 μM” value in the data set with human erythrocytes [3] (100 μM) is on record as “less hemolytic than CQ-FP complexes”. In data set [2], the SIW2 turned out to be 10.7, the IC50 came out at 3.99 ± 0.269 µg/mL (≈ 21.8 µM) and the “RI (resistance index)” value is 1.3. For the same compound, in the data set on human erythrocytes [4], the “Hemolysis of human erythrocytes without FP” value is on record as “None of the examined agents caused significant lysis”.

Take `c1ccc2c(c1)[nH]c1ccncc12` [Compound 3, 9H-3-azacarbazole]: in data set [5] (setting [6]), the AUC(0-t) is 1 ng·h/mL, the CL/F was determined as 194 mL/min/kg, the Cmax was determined as 4.67 ng/mL and the MRT is 1.28 h. In data set [5] (setting [6]), the Vd/F was determined as 19.7 L/kg and the k el was 0.000165 s⁻¹. In addition, in data set [5] (male, CD-1, mouse, plasma, po, 0.02 mg/kg, tmax, mice, i.g., 0.02 mg/kg in 3-NE), the Tmax was not above 5 min. Besides, the “time plasma concentrations detectable after administration” value in data set [5] (mice, i.g., 0.02 mg/kg in 3-NE) is “at least 8 h”. This compound gave a t0.5 in data set [5] (mice, i.g., 0.02 mg/kg in 3-NE, plasma, 0.02 mg/kg) of 70.33 min. Further, in data set [1], the SID10 worked out at 16.4 and the IC50 came to 1.95 ± 0.263 µg/mL (≈ 11.6 µM). The NHDF cell viability entry with NHDF cells is “negligible effect on cell viability”. This compound gave an IC50 in the data set “Cytotoxic activity test” of 32 ± 1.43 µg/mL (≈ 191 µM). Besides, in the data set on human erythrocytes [3], the “Hemolysis … of FP” value was “drastically increased the percentage of hemolysis”. Besides, in data set [2], the SIW2 was found to be 14.4, the IC50 amounted to 2.22 ± 0.752 µg/mL (≈ 13.2 µM) and the “RI (resistance index)” value is reported as 1.1. For the same compound, the “Hemolysis of human erythrocytes without FP” value with human erythrocytes [4] was “None of the examined agents caused significant lysis”.

Consider `Cc1ccn(C)c2nc3ccccc3c1-2` [Compound 6, 1,4-dimethyl-1H-1-azacarbazole], for which, in data set [1], the SID10 is 2.6 and the IC50 is 4.42 ± 0.458 µg/mL (≈ 22.5 µM). The compound further came in with a half-maximal inhibitory concentration (IC50) in the data set “Cytotoxic activity test” of 11.8 ± 0.144 µg/mL (≈ 59.9 µM). Besides, in the data set with human erythrocytes [3], the “Hemolysis with FP compared with CQ-FP, 50 μM” value was “less hemolytic than CQ-FP complexes” and the “Hemolysis … of FP” value was “drastically increased the percentage of hemolysis”. Besides, in data set [2], the SIW2 is 2.8, the IC50 stood at 4.18 ± 1.04 µg/mL (≈ 21.3 µM) and the “RI (resistance index)” value is on record as 0.9. Further, in the data set with human erythrocytes [4], the “Hemolysis of human erythrocytes without FP” value is reported as “None of the examined agents caused significant lysis”.

`c1ccc2c(c1)[nH]c1cnccc12` [Compound 2, 9H-2-azacarbazole]: in data set [1], the SID10 amounted to 12.0 and the IC50 was determined as 3.33 ± 0.742 µg/mL (≈ 19.8 µM). Half-maximal inhibition in the data set “Cytotoxic activity test” (IC50) was put at 40 ± 1.11 µg/mL (≈ 238 µM). For the same compound, the “Hemolysis … of FP” value in the data set on human erythrocytes [3] is listed as “drastically increased the percentage of hemolysis”. For the same compound, in data set [2], the SIW2 was 10.9, the IC50 amounted to 3.67 ± 0.708 µg/mL (≈ 21.8 µM) and the “RI (resistance index)” value is 1.1. For the same compound, the “Hemolysis of human erythrocytes without FP” value in the data set with human erythrocytes [4] was “None of the examined agents caused significant lysis”.

In the case of `Cc1ccc2[nH]c3ncccc3c2c1` [Compound 5, 6-methyl-9H-1-azacarbazole], the IC50 in data set [1] and in data set [2] was more than 5 µg/mL throughout.

Turning to `c1cc2c(cn1)[nH]c1cnccc12` [Compound 8, 9H-2,7-diazacarbazole], the IC50 in data set [1] and in data set [2] was more than 5 µg/mL throughout.

Consider `Cc1cccc2c1[nH]c1ncccc12` [Compound 4, 8-methyl-9H-1-azacarbazole], for which the IC50 in data set [1] and in data set [2] was more than 5 µg/mL in each case.

As a reminder, the IC50 is the concentration needed to halve the response being measured. Broadly, the AUC(0-t) is exposure summed from dosing to a finite time, without extrapolation to infinity. Read a low AUC(0-t) as low exposure. By CL/F is commonly meant the apparent clearance, not corrected for the fraction that reaches the circulation. In general, Cmax refers to the highest concentration seen after dosing. Usually MRT stands for a mean duration of stay, worked out from the concentration-time curve. The term Vd/F denotes the apparent distribution volume after extravascular dosing. Usually Tmax stands for the time from dosing to the highest level.

Source of the values: publication PMC7588843 (Bioactive Materials, 2020).
